Measured values from US10596169B2, “Cancer treatment with combination of plinabulin and taxane” (BeyondSpring Inc., priority 2013, dated 2020).

Assay: Example 3: clinical study, safety (docetaxel dose reduction, neutropenia rate, G-CSF use), Arm DN vs Arm D
Type: in vivo, human (NSCLC patients)
Method: The investor applied the optimum plinabulin and docetaxel combination treatment schedule derived from MV522 animal studies in NSCLC patients. Patients received therapy on Day 1 and Day 8 in 3-week cycles. Therapy on Day 1 consisted of 75 mg/m^2 docetaxel administered via intravenous infusion (IV) over 1 hour, followed 2 hours later (from the time the docetaxel infusion begins) by 30 mg/m^2 plinabulin administered via intravenous infusion (IV) over 30 minutes. Therapy on Day 8 consisted of 20 mg/m^2 or 30 mg/m^2 plinabulin administered via intravenous infusion (IV) over 30 minutes.
This was an open-label study in patients with advanced NSCLC that had progressed after treatment with at least 1 chemotherapy regimen. Patients were randomized to receive either docetaxel plus plinabulin (DN) or docetaxel alone (75 mg/m^2) (D). 2 dosing cohorts were investigated: • 1) 30 mg/m^2 dosing cohort: Approximately 110 patients were to be randomized (1:1) to receive either docetaxel plus plinabulin at 30 mg/m^2 (DN 30 mg/m^2 arm) or docetaxel alone (D arm); • 2) 20 mg/m^2 dosing cohort: Approximately 57 patients were to be randomized (2:1) to receive either docetaxel plus plinabulin at 20 mg/m^2 (DN 20 mg/m^2 arm) or docetaxel (D arm) alone.
Patients received therapy on Day 1 and Day 8 in 3-week cycles.
Therapy on Day 1 consisted of 75 mg/m^2 docetaxel administered via intravenous infusion (IV) over 1 hour, followed 2 hours later (from the time the docetaxel infusion began) by placebo (Arm D) or 30 mg/m^2 or 20 mg/m^2 plinabulin (Arm DN) DN administered via intravenous infusion (IV) over 30 minutes. Oral dexamethasone (16 mg) was given the day prior to, the day of and the day following docetaxel infusion (Day 1). Therapy on Day 8 consisted of placebo (Arm D) or 30 mg/m^2 or 20 mg/m^2 plinabulin (Arm DN) administered via intravenous infusion (IV) over 30 minutes.
In patients experiencing drug related Grade >2 treatment emergent adverse events (except alopecia, anorexia, and fatigue) according to the CTCAE (v3.0) treatment may be delayed until the adverse event has recovered to <Grade 1.
The initial dose of plinabulin was 30 mg/m^2 or 20 mg/m^2. Dose adjustments depended on observed adverse events. Volume of administration varied based on assigned dose and patient body surface area. The clinical formulation were supplied as a concentrated solution in 40% Solutol® HS-15/60% propylene glycol in amber vials containing 80 mg of drug in 20 mL (4 mg/mL) and were stored at room temperature. Each vial was designated for single use. The correct volume of drug (at a concentration of 4 mg/mL in the vial) was diluted in dextrose 5% in water (D5W) at a dilution of 1:20 and administered IV peripherally or centrally. Infusion time may be increased as clinically indicated at the direction of the Sponsor. Plinabulin and placebo must be protected from light at all times including storage, dilution and administration. Plinabulin and placebo should be administered within 6 hours of dilution.
The initial dose of docetaxel was 75 mg/m^2. Dose adjustments depended on observed adverse events.
Comparisons were made of efficacy endpoints between Arm D and Arm DN. The primary efficacy endpoint is overall survival. Secondary endpoints include response rate, duration of response, quality of life, neutropenia rate and G-CSF usage. […]
All patients were evaluated for safety analysis if they received at least one dose of study drug. […]

## CC(=O)O[C@@]12CO[C@@H]1C[C@H](O)[C@@]1(C)C(=O)[C@H](O)C3=C(C)[C@@H](OC(=O)[C@H](O)[C@@H](NC(=O)OC(C)(C)C)c4ccccc4)C[C@@](O)([C@@H](OC(=O)c4ccccc4)[C@H]21)C3(C)C [Docetaxel, docetaxel]
20 mg/m^2 plinabulin cohort and companion D arm
  Patients requiring docetaxel dose reductions: 22.2%
30 mg/m^2 plinabulin cohort and matched docetaxel alone arm
  Patients with docetaxel dose decrease from initial 75 mg/m^2: 18.2%
DN 20 mg/m^2 arm vs companion D arm
  Incidence of neutropenia: 22.2%
DN 30 mg/m^2 arm vs companion D arm
  Incidence of neutropenia: 36.4%
Pooled D arm (n=73)
  Incidence of ≥Grade 3 neutropenia: 27.4%
